From the supplement of paper PMC7021759

System: SK-N-MM (SKNMM-MYCN, doxycycline-inducible MYCN)
Experiment: area under dose-response curve (CellTiter-Glo viability normalised to plate controls) (AUC (arbitrary units)); higher = more loss of viability; extreme values may be limits of the assay
Method in brief: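 Compounds were pin-transferred as 10-point 1:3 dilution series (890-fold stock dilution) onto SK-N-MM cells with doxycycline-inducible MYCN, plated at 1250 cells/100 μL in 96-well plates and switched about 24 h after plating to medium with or without doxycycline two days before dosing. Dosing was repeated on day 4, and CellTiter-Glo luminescence was read 3 or 8 days after drugging. Area under the dose-response curve came from log2 signals normalised to the positive and negative controls on each plate.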

[1] = MYCN induction (doxycycline): +doxycycline (MYCN induced), time after drugging: 3 days
[2] = MYCN induction (doxycycline): +doxycycline (MYCN induced), time after drugging: 8 days
[3] = MYCN induction (doxycycline): no doxycycline (MYCN not induced), time after drugging: 3 days
[4] = MYCN induction (doxycycline): no doxycycline (MYCN not induced), time after drugging: 8 days

Structure (SMILES)	area under dose-response curve [1]	area under dose-response curve [2]	area under dose-response curve [3]	area under dose-response curve [4]
CC(=O)O[C@@]12CO[C@@H]1C[C@H](O)[C@@]1(C)C(=O)[C@H](O)C3=C(C)[C@@H](OC(=O)[C@H](O)[C@@H](NC(=O)OC(C)(C)C)c4ccccc4)C[C@@](O)([C@@H](OC(=O)c4ccccc4)[C@H]21)C3(C)C [DOCETAXEL]	142	292	107	183
COc1cccc2c1C(=O)c1c(O)c3c(c(O)c1C2=O)C[C@@](O)(C(=O)CO)C[C@@H]3O[C@H]1C[C@H](N)[C@H](O)[C@H](C)O1 [DOXORUBICIN]	135	295	104	224
Cc1cc(Nc2cc(N3CCN(C)CC3)nc(/C=C/c3ccccc3)n2)n[nH]1 [ENMD-2076]	86	133	0.719	111
CNC(=O)c1ccc(N2C(=S)N(c3ccc(C#N)c(C(F)(F)F)c3)C(=O)C2(C)C)cc1F [ENZALUTAMIDE]	0	0	0	0
C=C1C[C@@H]2CC[C@@]34C[C@H]5O[C@H]6[C@@H](O3)[C@H]3O[C@H](CC[C@@H]3O[C@H]6[C@H]5O4)CC(=O)C[C@@H]3[C@@H](OC)[C@@H](C[C@H](O)CN)O[C@H]3C[C@H]3O[C@@H](CC[C@@H]1O2)C[C@@H](C)C3=C [ERIBULIN]	0	0.398	0	52.7
C#Cc1cccc(Nc2ncnc3cc(OCCOC)c(OCCOC)cc23)c1 [ERLOTINIB]	–	1.15	18.8	–
COc1cc([C@@H]2c3cc4c(cc3[C@@H](O[C@@H]3O[C@@H]5CO[C@@H](C)O[C@H]5[C@H](O)[C@H]3O)[C@H]3COC(=O)[C@H]23)OCO4)cc(OC)c1O [ETOPOSIDE]	42.1	114	18.8	43.1
CO[C@H]1C[C@@H]2CC[C@@H](C)[C@@](O)(O2)C(=O)C(=O)N2CCCC[C@H]2C(=O)O[C@H]([C@H](C)C[C@@H]2CC[C@@H](OCCO)[C@H](OC)C2)CC(=O)[C@H](C)/C=C(\C)[C@@H](O)[C@@H](OC)C(=O)[C@H](C)C[C@H](C)/C=C/C=C/C=C/1C [EVEROLIMUS]	19.6	0	37.3	21.4
Cc1cnc(Nc2ccc(OCCN3CCCC3)cc2)nc1Nc1cccc(S(=O)(=O)NC(C)(C)C)c1 [FEDRATINIB]	109	176	102	151
O=c1[nH]c(=O)n([C@H]2C[C@H](O)[C@@H](CO)O2)cc1F [FLOXURIDINE]	23.4	165	11.8	66.3
Nc1nc(F)nc2c1ncn2[C@@H]1O[C@H](COP(=O)(O)O)[C@@H](O)[C@@H]1O [FLUDARABINE PHOSPHATE]	0	0	0	57.1
OCCN1CCN(CCCN2c3ccccc3Sc3ccc(C(F)(F)F)cc32)CC1 [FLUFENAZINE]	0	0	0	0
CC(C)n1c(/C=C/C(O)CC(O)CC(=O)O)c(-c2ccc(F)cc2)c2ccccc21 (stereo unspecified) [FLUVASTATIN]	2.15	11	0	4.98
COc1cc2c(Oc3ccc(NC(=O)C4(C(=O)Nc5ccc(F)cc5)CC4)cc3F)ccnc2cc1OCCCN1CCOCC1 [FORETINIB]	167	170	144	140
CC(C)c1cc(-c2n[nH]c(=O)n2-c2ccc3c(ccn3C)c2)c(O)cc1O [GANETESPIB]	169	378	202	398
Cn1nccc1Nc1nccc(-c2ccn([C@H](CO)c3ccc(Cl)c(F)c3)c(=O)c2)n1 [GDC-0994]	0	0	2.52	0
CN(C)C1CCN(C(=O)c2ccc(NC(=O)Nc3ccc(-c4nc(N5CCOCC5)nc(N5CCOCC5)n4)cc3)cc2)CC1 [GEDATOLISIB]	39.4	0	27.4	47.7
COc1cc2ncnc(Nc3ccc(F)c(Cl)c3)c2cc1OCCCN1CCOCC1 [GEFITINIB]	80.1	0	93.7	93.8
Nc1ccn([C@@H]2O[C@H](CO)[C@@H](O)C2(F)F)c(=O)n1 [GEMCITABINE]	72.2	299	43.4	139

Structure (SMILES)	area under dose-response curve [1]	area under dose-response curve [2]	area under dose-response curve [3]	area under dose-response curve [4]
CCN(CC)Cc1ccc2cc(COC(=O)Nc3ccc(C(=O)NO)cc3)ccc2c1 [GIVINOSTAT]	132	283	96.7	226
N#CN=C(NCCCCCCOc1ccc(Cl)cc1)Nc1ccncc1 [GMX-1778]	172	348	119	338
N[C@H](CCC(=O)N[C@@H](Cc1c[nH]c2ccccc12)C(=O)O)C(=O)O [GOLOTIMOD]	–	0	0	12.7
CCOC(=O)CCNc1cc(N2CCc3ccccc3CC2)nc(-c2ccccn2)n1 [GSK-J4]	0.00103	188	61.4	150
CCN(CCO)CCCC(C)Nc1ccnc2cc(Cl)ccc12 (stereo unspecified) [HYDROXYCHLOROQUINE]	0	0	–	0
COc1cc2c(cc1-c1c(C)noc1C)ncc1[nH]c(=O)n([C@H](C)c3ccccn3)c12 [I-BET151]	10.5	46.3	14.6	36.3
Oc1ccc(C2=Cc3ccc(O)cc3OC2)cc1 [IDRONOXIL]	38.3	77.4	17.5	46.3
O=P1(NCCCl)OCCCN1CCCl (stereo unspecified) [IFOSFAMIDE]	0	0	0	–
CC(C)n1nc(-c2ccc3oc(N)nc3c2)c2c(N)ncnc21 [INK-128]	36.2	38.7	29.5	59.3
CC(C)NC[C@@H](C(=O)N1CCN(c2ncnc3c2[C@H](C)C[C@H]3O)CC1)c1ccc(Cl)cc1 [IPATASERTIB]	0	0	10.4	0.0606
COc1ccc(-c2cc(=O)c3c(O)cc(O)c(-c4cc(-c5cc(=O)c6c(O)cc(O)cc6o5)ccc4OC)c3o2)cc1 [ISOGINKGETIN]	–	61.2	15.4	24.2
CCC(C)n1ncn(-c2ccc(N3CCN(c4ccc(OCC5COC(Cn6cncn6)(c6ccc(Cl)cc6Cl)O5)cc4)CC3)cc2)c1=O (stereo unspecified) [ITRACONAZOLE]	13.1	26.1	11.4	26.1
C/C(=C\c1csc(C)n1)[C@@H]1C[C@@H]2O[C@]2(C)CCC[C@H](C)[C@H](O)[C@@H](C)C(=O)C(C)(C)[C@@H](O)CC(=O)N1 [IXABEPILONE]	121	199	89.9	138
Clc1ccc(NN=C(c2ccccc2)c2ccccn2)nc1 [JIB-04]	33.4	152	17.8	37.1
CS(=O)(=O)CCNCc1ccc(-c2ccc3ncnc(Nc4ccc(OCc5cccc(F)c5)c(Cl)c4)c3c2)o1 [LAPATINIB]	0	0	0	0
Cc1oncc1C(=O)Nc1ccc(C(F)(F)F)cc1 [LEFLUNOMIDE]	0	5.53	0	16.7
COC(=O)N[C@@H](C)CNc1nccc(-c2cn(C(C)C)nc2-c2cc(Cl)cc(NS(C)(=O)=O)c2F)n1 [LGX-818]	12.9	2.41	11	68.6
Cc1ccc(NC(=O)c2ccc(CN3CCN(C)CC3)cc2)cc1Nc1nc(-c2cccnc2)cs1 [MASITINIB]	0	0	0	2.84
CC12CC3CC(C)(C1)CC(N)(C3)C2 [MEMANTINE]	0	0	0	0
